Assay results: ChEMBL document CHEMBL1201862, “PubChem BioAssay data set” (2004)
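These data come from cells grown in 96-well plates and exposed to compound for 48 hours at five concentrations. The concentration for 50% growth inhibition is given as GI50.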 Activity calls are given as the source filed them. No stated cut-off is given here; in the data, active = GI50 up to about 1.1 µM and inactive = higher.

Columns and labels:
Assay in all cases: NCI tumour cell line growth inhibition, 48 h
[1] = tested on: CAKI-1
[2] = tested on: CCRF-CEM
[3] = tested on: HOP-62
[4] = tested on: K562
[5] = tested on: KM12
[6] = tested on: MOLT-4
[7] = tested on: RXF 393
[8] = tested on: SF-268
[9] = tested on: SN12C
[10] = tested on: SNB-19
[11] = tested on: SNB-75
[12] = tested on: SR
[13] = tested on: SW-620
[14] = tested on: TK-10
[15] = tested on: UACC-62

Measured: GI50

CCOC(=O)Cc1csc(Nc2ccccc2[N+](=O)[O-])n1
inactive: [1] > 100 µM | [2] > 100 µM | [3] > 100 µM | [4] > 100 µM | [5] > 100 µM | [6] > 100 µM | [7] > 100 µM | [8] > 100 µM | [9] > 100 µM | [10] > 100 µM | [11] > 100 µM | [12] 29.7 µM | [13] > 57.5 µM | [14] > 100 µM | [15] > 100 µM

NC(N)NCCCc1cn2c(n1)C1CCCN1C(=O)C2Cc1ccccc1 (stereo unspecified)
inactive: [1] > 100 µM | [2] > 100 µM | [3] > 100 µM | [4] > 100 µM | [5] > 100 µM | [6] > 100 µM | [7] > 100 µM | [8] > 100 µM | [9] > 100 µM | [10] > 100 µM | [11] 61 µM | [13] > 100 µM | [14] > 100 µM | [15] > 100 µM

O=[N+]([O-])C(=C1c2ccccc2-c2ccccc21)[N+](=O)[O-]
inactive: [1] > 100 µM | [2] 47.6 µM | [3] > 100 µM | [4] 43.8 µM | [5] 57.5 µM | [6] 32.6 µM | [7] > 100 µM | [8] 20.9 µM | [9] > 100 µM | [10] 97.5 µM | [12] > 100 µM | [13] 64.7 µM | [14] > 100 µM | [15] 49.3 µM

O=C(Cc1nc2ccccc2s1)C(=O)Nc1ccc(Cl)cc1
inactive: [1] > 100 µM | [3] > 100 µM | [4] > 100 µM | [5] > 100 µM | [6] > 100 µM | [8] > 100 µM | [9] > 100 µM | [10] > 100 µM | [11] > 100 µM | [13] > 100 µM | [14] > 100 µM | [15] > 100 µM

CCOC(=O)C12CCCC1(O)N(NC(=O)OC(C)(C)C)C(C)=C2C(=O)OC (stereo unspecified)
inactive: [1] > 100 µM | [2] > 100 µM | [3] > 100 µM | [4] > 100 µM | [5] > 100 µM | [6] > 100 µM | [8] > 100 µM | [9] > 100 µM | [10] > 100 µM | [13] > 100 µM | [14] > 100 µM | [15] > 100 µM

O=c1c2cccnc2ncn1CCCN1CCOCC1
inactive: [1] > 100 µM | [2] > 100 µM | [3] > 100 µM | [4] > 100 µM | [5] > 100 µM | [6] > 10 µM | [7] > 100 µM | [8] > 100 µM | [9] > 100 µM | [10] > 100 µM | [11] > 100 µM | [12] > 100 µM | [13] > 100 µM | [14] > 100 µM | [15] > 100 µM

Cc1c(C2Cc3ccccc3N2)c2ccccc2n1C (stereo unspecified)
inactive: [1] > 100 µM | [2] > 100 µM | [3] > 100 µM | [4] > 100 µM | [5] > 100 µM | [6] > 100 µM | [7] > 100 µM | [8] > 100 µM | [9] > 100 µM | [10] > 100 µM | [11] > 100 µM | [12] > 100 µM | [13] > 100 µM | [14] > 100 µM | [15] > 100 µM

O=c1c2ccccc2[nH]c(=S)n1-c1ccc(Br)cc1
inactive: [3] > 100 µM | [4] 43 µM | [5] > 100 µM | [6] 76 µM | [7] > 100 µM | [8] 90.8 µM | [9] > 100 µM | [10] > 100 µM | [11] 30.7 µM | [12] > 100 µM | [13] 87.1 µM | [14] > 100 µM

CCCc1n[nH]c(CCC(=O)N(Cc2ccccc2)Cc2ccccc2)c1CC
inactive: [1] > 100 µM | [2] > 100 µM | [3] > 100 µM | [4] > 100 µM | [5] > 100 µM | [6] > 100 µM | [7] > 100 µM | [8] > 100 µM | [9] > 100 µM | [10] > 100 µM | [11] > 100 µM | [13] > 100 µM | [14] > 100 µM | [15] > 100 µM

COc1ccc(/C=C/c2cc(OC)c(OC(C)=O)c(OC)c2)cc1
inactive: [2] 30.8 µM | [3] 25.9 µM | [6] 20.3 µM | [8] 29.1 µM | [9] 24.3 µM | [10] 25.1 µM | [11] 18.5 µM | [15] 20.1 µM

COc1ccc(NC(=O)CC2S/C(=N\c3ccccc3C)NC2=O)c([N+](=O)[O-])c1 (stereo unspecified)
inactive: [3] > 100 µM | [4] > 100 µM | [5] > 100 µM | [6] > 100 µM | [8] > 100 µM | [9] > 100 µM | [10] > 100 µM | [11] > 100 µM | [12] > 100 µM | [13] > 100 µM | [14] > 100 µM | [15] > 100 µM

Cc1cccc(C(C)(C)C)c1NC(=O)CCc1n[nH]c(=S)o1
inactive: [1] > 100 µM | [2] > 100 µM | [3] > 100 µM | [4] 43.2 µM | [5] > 100 µM | [6] > 100 µM | [8] > 100 µM | [9] > 100 µM | [10] > 100 µM | [11] > 100 µM | [13] 15.9 µM | [14] > 100 µM | [15] > 100 µM

CC1C=C(OC(=O)c2ccccc2)C(=O)C(n2cc(F)c(=O)[nH]c2=O)O1 (stereo unspecified)
inactive: [1] 62.1 µM | [2] 45.1 µM | [3] 27.8 µM | [4] 76 µM | [5] 46 µM | [6] 51.5 µM | [8] > 100 µM | [9] > 100 µM | [10] > 100 µM | [11] > 100 µM | [13] > 100 µM | [14] > 100 µM | [15] 79.4 µM

CN(CCCN1C(=O)c2cccc3cc([N+](=O)[O-])cc(c23)C1=O)CCN(C)CCCN1C(=O)c2cccc3cc([N+](=O)[O-])cc(c23)C1=O
inactive: [1] 31.9 µM | [2] 6.34 µM | [3] 31.8 µM | [4] 4.94 µM | [5] 24.7 µM | [6] 1.51 µM | [7] 33 µM | [8] 29 µM | [9] > 39.3 µM | [10] > 39.3 µM | [11] 20.4 µM | [13] 2.48 µM | [14] > 39.3 µM | [15] 17 µM

COc1cc(-c2n[nH]cc2CCCC(=O)Nc2ccccc2[N+](=O)[O-])ccc1O
inactive: [1] > 100 µM | [2] 55.7 µM | [3] > 100 µM | [4] 29.6 µM | [6] 42.2 µM | [8] > 100 µM | [9] > 100 µM | [11] 20.8 µM | [12] 46.9 µM | [13] 59.3 µM | [14] > 100 µM | [15] 67.9 µM

Cc1ccccc1C1CC(c2ccccc2)=NO1 (stereo unspecified)
inactive: [1] > 100 µM | [2] > 100 µM | [3] > 100 µM | [4] > 100 µM | [5] > 100 µM | [6] > 100 µM | [8] > 100 µM | [9] > 100 µM | [10] > 100 µM | [11] > 100 µM | [12] > 100 µM | [13] > 100 µM | [14] > 100 µM | [15] > 100 µM

c1ccc2c(c1)Cc1c(Cc3csc4ccccc34)ccc3cccc-2c13
inactive: [2] > 100 µM | [3] > 100 µM | [4] 45.9 µM | [5] > 100 µM | [6] > 100 µM | [7] > 100 µM | [8] > 100 µM | [9] > 100 µM | [10] > 100 µM | [11] 19.7 µM | [13] > 100 µM | [14] > 10 µM | [15] > 100 µM

CN(C)CCn1c2c3ccccc3ccc2c2oc(=O)c3ccccc3c21
inactive: [1] 6.37 µM | [2] 4.26 µM | [3] 13.2 µM | [4] 4.48 µM | [5] 6.71 µM | [6] 2.62 µM | [8] 2.71 µM | [10] 10.3 µM | [11] 2.3 µM | [12] 2.78 µM | [13] 4 µM | [14] 12.6 µM | [15] 7.35 µM

CC(=O)O[C@H]1CC[C@@]2(C)C(=CC[C@H]3C(CC#N)[C@@](C)(C#N)CCC32)C1 (stereo partly specified)
inactive: [2] > 100 µM | [3] > 100 µM | [4] > 100 µM | [5] > 100 µM | [6] > 100 µM | [7] > 100 µM | [8] > 100 µM | [9] > 100 µM | [10] > 100 µM | [11] 69.8 µM | [13] > 100 µM | [14] > 100 µM | [15] > 100 µM

CC(C)CC(CNC(Cc1ccc(Cl)cc1)C(N)=O)NC(=O)C(Cc1c[nH]cn1)NC(=O)CNC(=O)C(NC(=O)C(C)NC(=O)C(Cc1c[nH]c2ccccc12)NC(=O)C(CCC(=O)O)NC(=O)C(N)Cc1ccccc1)C(C)C (stereo unspecified)
inactive: [1] > 133 µM | [2] > 133 µM | [3] > 133 µM | [4] > 133 µM | [5] > 133 µM | [6] > 133 µM | [7] > 133 µM | [9] > 133 µM | [10] > 133 µM | [11] > 133 µM | [12] > 133 µM | [13] > 133 µM | [15] > 133 µM
